Laboratory results published in US20240390404A1, “ANTI-HUMAN NOROVIRUS AGENT” (KEIO UNIVERSITY, priority 2018, published 2024).

Key:
[1] = test system: human norovirus GII.4 (K2017 strain); experiment: Human norovirus proliferation inhibition in 2D organoid after agent pre-treatment, GII.4 strain; assay type: cell-based
Protocol: Feces of a human norovirus-infected patent contains a large amount of infectious human norovirus. Thus, the feces of a human norovirus-infected patient is suspended in distilled water or the like to a final concentration of about 10%, to thereby prepare a “10% feces suspension.” The 10% feces suspension is about 10-fold diluted with an ENRA medium. The diluted suspension is added to each of the aforementioned wells having the 2D organoid (5 μL/well) and subjected to incubation for about 3 hours, to thereby proliferate human norovirus. As a result of verification, it has been confirmed that human norovirus proliferates to about 100,000 times the initial count through the culture system employing the 2D organoid.
In the Example, there were tested strains of human norovirus obtained from feces of human norovirus infection patients through the aforementioned procedure and stocked before the test. Specifically, three strains belonging to the genetic group 2 (GII) which accounts for 80 to 90% of the infected patients were selected as test targets. The isolated strain lineages included in GII (FIG. 1) were GII. 6 belonging to “Lineage 1,” GII. 3 belonging to “Lineage 2,” and GII.4 belonging to “Lineage 3” (GII. 6: K2017 strain, GII.3: TCH2004 strain, and GII. 4: K2017 strain).
The effect of 2fp-fucose treatment on proliferation of human norovirus was investigated for each lineage of norovirus. Specifically, after the 2fp-fucose treatment for 3 days, the 2D organoid was infected with each of the aforementioned norovirus strains GII.6, GII. 3, and GII. 4, and the viral proliferation amount was determined on days 3 and 6 after infection (FIG. 4).
Next, there was investigated the effect of the period of time (the number of days) of the 2fp-fucose treatment performed in advance on the anti-human norovirus action of the fucose analog. Specifically, the strain GII. 4 was treated with 2fp-fucose (several concentrations) for 1 to 4 days. […] However, in the group of 3-day treatment, the proliferation inhibition effect was observed by the 200 μM treatment with a certain range of variation in effectiveness. In the group of 4-day treatment, the proliferation inhibition effect was initially observed by 8 μM treatment, and the effect increased in a concentration-dependent manner to a 2fp-fucose concentration of 200 μM. […] Thus, the highest proliferation inhibition effect was obtained in the 2D organoid system through a 200 μM treatment for 3 to 4 days. The test was repeatedly performed three times. Error bars denote SEMs.
The 2D organoid was treated with an agent for 3 days. The tested agents were (a) 2fp-fucose (200 μM), (b) Sofosbuvir (1 μM), (c) Lamivudine (1 μM), (d) Ribavirin (400 μM), and (e) Mizoribine (100 μM). Subsequently, the thus-treated 2D organoid was infected with human norovirus (the norovirus strain GII.4), and the proliferation inhibition effect was determined (FIG. 6). The test was repeatedly performed three times. Error bars denote SEMs.

[2] = test system: human norovirus GII. 4 strain or GII. 6 strain; experiment: Effect of treatment with 2fp-fucose or 6a-fucose after differentiation, on infection and reinfection (RNA titer by real-time RT-PCR); assay type: cell-based; conditions: fucose analog 200 μM added on day 5, infection on day (5+2), 3 days culturing
Protocol: (a) The 2D organoid was disseminated to a 96-well plate. After completion of differentiation induction, two fucose analogs (i.e., 2fp-fucose and 6a-fucose) were each added on day 5 to a concentration of 200 μM, to thereby provide addition groups. The results are shown in FIG. 14(a) and FIG. 14(b), respectively. A non-addition group (untreated group) was also provided. Subsequently, the medium was removed from the wells on day (5+2), and the plate was washed. Then, infection with the GII. 4 strain or the GII. 6 strain was performed.
After the infection treatment, the human norovirus remaining in the medium was removed together with the medium, and the plate was washed thrice with a new medium. After washing, the aforementioned active ingredients were each added to the new medium to a concentration of 200 μM (addition groups), and no addition was performed with respect to the untreated (i.e., non-addition) group. Culturing was performed for 3 days. A portion (10 μL) of the medium was sampled from each well, and the samples were centrifuged at 10,000 g for 10 minutes, to thereby remove cell precipitates. The amount of human norovirus genomic RNA in the supernatant (1 μL) was determined through real-time RT-PCR.
In the test system, the effect of the anti-norovirus agent of the present invention provided after human norovirus infection was estimated on the basis of the following study. Specifically, among the fucose analog-treated 2D organoid cells, the living cells on growth day 3 (i.e., most of them were not infected with human norovirus, by virtue of the effect of the fucose analog) were subjected to a secondary infection operation (i.e., reinfection). The effect of the fucose analog on the reinfection was investigated.
In a specific procedure, the addition groups were prepared through the same procedure as employed in (a) above. The primarily infected cells were cultured in the presence of the fucose analog (200 μM) for 3 days, and the medium was removed from each culture system. After completion of washing, the cells were infected again with human norovirus, and then the virus was removed together with the medium. After completion of the next washing, a medium containing the fucose analog (200 μM) (represented by Reinf+2f-fuc or Reinf+6a-fuc), or a fucose analog-free medium (represented by Reinf−2f-fuc or Reinf−6a-fuc) was added thereto, and culturing was performed for further 3 days. Similar to the above case, the amount of human norovirus released to the supernatant was determined as an RNA titer. In the graphs, the two bars on the right side correspond to (Reinf+2f-fuc and Reinf+6a-fuc) or (Reinf−2f-fuc and Reinf−6a-fuc).

[3] = GII.4, groups of 1-day treatment and 2-day treatment with 2fp-fucose

CC(=O)OC1O[C@@H](C)[C@@H](OC(C)=O)[C@@H](OC(C)=O)[C@@H]1F (stereo partly drawn) [2fp-fucose, (3S,4R,5R,6S)-3-fluoro-6-methyltetrahydro-2H-pyran-2,4,5-triyl triacetate]
concentration of slight viral proliferation inhibition ([1]; GII.4 strain, 3 days treatment before infection): 40 µM
concentration of complete viral proliferation inhibition ([1]; GII.4 strain, 3 days treatment before infection, days 3 and 6 after infection): ≥ 200 µM
proliferation of human norovirus ([1]; GII.4, 4-day treatment, 1,000 μM): slight proliferation of human norovirus was observed
viral RNA titer from day 0 to day 7 (proliferation inhibition effect) ([1]; GII.4, agent 200 μM, 3 days treatment before infection): no substantial increase in viral RNA titer was observed
concentration at which the proliferation inhibition effect was observed ([1]; GII.4, group of 3-day treatment, certain range of variation in effectiveness): 200 µM
concentration at which the proliferation inhibition effect was initially observed ([1]; GII.4, group of 4-day treatment): 8 µM
proliferation inhibition effect [1, 3]: no proliferation inhibition effect
proliferation of human norovirus 3 days after inoculation [1, 3]: ≥ 100 fold
concentration giving the highest proliferation inhibition effect ([1]; GII.4, treatment for 3 to 4 days): 200 µM
rise in RNA titer (proliferation of human norovirus) in the addition group [2]: no rise in RNA titer
rise in RNA titer of the untreated group with respect to the administration system [2]: ≥ 10 fold
